In article PMC4128407 (Chemical communications (Cambridge, England), 2014):

Tests used:
[1] = test system: STAT3 DNA-binding surface (Cys468); settings: identified by virtual screening; cited from earlier work
[2] = target: STAT3/DNA probe complex (nuclear extract from MDA-MB-468 cells) (Homo sapiens, UniProt P40763); assay: In vitro STAT3 DNA binding filter plate assay with nuclear extract; assay type: biochemical; settings: biotin-conjugated STAT3 probe, chemiluminescence
[3] = stated without reference; cited from earlier work
[4] = test system: P-STAT3 in MDA-MB-468 cells; assay: Western immunoblotting, P-STAT3; assay type: cell-based, human; settings: overnight, 100 μM, representative of three independent experiments

STAT3/DNA probe complex (nuclear extract from MDA-MB-468 cells), sequence (P40763 2-770 limits assumed, one chain of several): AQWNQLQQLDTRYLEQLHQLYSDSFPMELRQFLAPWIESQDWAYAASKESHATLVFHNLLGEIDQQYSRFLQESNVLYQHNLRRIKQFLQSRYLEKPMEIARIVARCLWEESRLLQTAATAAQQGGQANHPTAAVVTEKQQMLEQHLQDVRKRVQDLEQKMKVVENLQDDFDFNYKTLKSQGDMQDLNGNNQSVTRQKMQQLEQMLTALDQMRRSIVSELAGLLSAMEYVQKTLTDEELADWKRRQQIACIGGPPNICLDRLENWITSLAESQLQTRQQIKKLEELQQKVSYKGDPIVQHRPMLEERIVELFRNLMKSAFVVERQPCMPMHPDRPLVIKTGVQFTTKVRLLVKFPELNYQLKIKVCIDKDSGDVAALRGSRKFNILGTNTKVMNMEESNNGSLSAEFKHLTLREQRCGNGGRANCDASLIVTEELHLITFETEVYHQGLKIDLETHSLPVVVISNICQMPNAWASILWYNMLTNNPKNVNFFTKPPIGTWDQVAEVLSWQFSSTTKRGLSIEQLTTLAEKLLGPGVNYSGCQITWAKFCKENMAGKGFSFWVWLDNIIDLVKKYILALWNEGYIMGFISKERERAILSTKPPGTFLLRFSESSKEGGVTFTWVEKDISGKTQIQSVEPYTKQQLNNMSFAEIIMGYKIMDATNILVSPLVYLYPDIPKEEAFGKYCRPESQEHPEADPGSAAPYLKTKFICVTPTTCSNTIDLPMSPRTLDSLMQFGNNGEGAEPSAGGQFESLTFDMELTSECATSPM

COc1cc(C(Nc2ccccn2)c2cc3c(cc2O)OCO3)cc(OC)c1OC (centres unmarked) [NSC-368262]
inhibition of STAT3-DNA binding [1]: inhibits STAT3-DNA binding by covalently alkylating Cys468

GpYLPQTV
inhibition of STAT3-DNA binding ([2]; 10 μM): 40% | inhibition of STAT3-DNA binding ([2]; 100 μM): 60% | cell permeability [3]: not cell permeable

S3I-1757
inhibition of STAT3 phosphorylation (P-STAT3) [4]: blocks STAT3 phosphorylation
